This assay deals with T1, recombinant human 17β-hydroxysteroid dehydrogenase type 1 (Homo sapiens, UniProt P14061).
T1 construct: made in house; host or cells: Sf9 insect cells (baculovirus, Bac to Bac Expression System)
T1 sequence (P14061 1-328): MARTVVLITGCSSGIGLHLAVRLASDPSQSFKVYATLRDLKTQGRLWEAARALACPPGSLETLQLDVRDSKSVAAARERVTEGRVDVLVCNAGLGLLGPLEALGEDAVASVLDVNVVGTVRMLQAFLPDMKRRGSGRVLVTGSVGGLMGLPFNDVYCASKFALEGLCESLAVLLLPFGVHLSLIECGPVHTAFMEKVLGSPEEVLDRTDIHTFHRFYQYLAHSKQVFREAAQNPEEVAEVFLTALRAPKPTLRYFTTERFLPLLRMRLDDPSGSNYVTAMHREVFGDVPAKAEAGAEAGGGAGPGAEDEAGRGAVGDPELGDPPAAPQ
As to the kind of experiment: Inhibition of recombinant human 17β-hydroxysteroid dehydrogenase type 1 (conversion of 3H-estrone to estradiol, HPLC). In kind it is biochemical. Conditions: 30 nM 3H-estrone, 1 mM NADPH, 30 min at RT; for inhibition at 0.1 µM: inhibitor 100 nM, read-out: Inhibition of rec. 17β-HSD1 (% inhibition), 100 nM; for inhibition at 1 µM: inhibitor 1 μm, read-out: Inhibition of rec. 17β-HSD1 (% inhibition), 1 μm. Here is the method:
1. Inhibition of the 17β-hydroxysteroid Dehydrogenase Type 1 Enzyme
17β-HSD1 Purification: Recombinant baculovirus was generated by the “Bac to Bac Expression System” (Invitrogen). Recombinant bacmid was transfected to Sf9 insect cells using “Cellfectin Reagent” (Invitrogen). 60 h later cells were harvested; the microsomal fraction was isolated as described by Puranen et al. 1994. Aliquots were stored frozen until determination of enzymatic activity.
Assay—Inhibition of Recombinant Human 17β-hydroxysteroid Dehydrogenase Type 1:
Recombinant protein (0.1 μg/ml) was incubated in 20 mM KH2PO4 pH 7.4 with 30 nM 3H-estrone and 1 mM NADPH for 30 min at RT, in the presence of potential inhibitors at concentrations of 1 μM or 0.1 μM. Inhibitor stock solutions were prepared in DMSO. Final concentration of DMSO was adjusted to 1% in all samples. The enzyme reaction was stopped by addition of 10% trichloroacetic acid (final concentration). Samples were centrifuged in a microtiter plate at 4000 rpm for 10 min. Supernatants were applied to reverse phase HPLC on a Waters Symmetry C18 column, equipped with a Waters Sentry Guard column. Isocratic HPLC runs were performed at RT at a flow rate of 1 ml/min of acetonitrile:water 48:52 as running solvent. Radioactivity was monitored in the eluate by a Packard Flow Scintillation Analyzer. Total radioactivity for estrone and estradiol were determined in each sample and percent conversion of estrone to estradiol was calculated according to the following formula:
Percent inhibition was calculated as follows: % inhibition=100−% conversion

Each structure is given as a SMILES string.

Broadly, the inhibition is how much of the control response was suppressed.

Consider `COc1ccc2c(c1)CC[C@H]1[C@@H]3[C@H](CCCNC(=O)Nc4ccc5ccccc5c4)CC(=O)[C@@]3(C)CC[C@H]21` [Example 460], for which the inhibition at 0.1 µM was 50.1% and the inhibition at 1 µM came out at 77.2%.
Turning to `CN(C[C@H]1CC(=O)[C@@]2(C)CC[C@@H]3c4ccc(O)cc4CC[C@H]3[C@H]12)S(=O)(=O)c1ccc2ccccc2c1` [Example 681], the inhibition at 0.1 µM was 39.7% and the inhibition at 1 µM is 87.1%.
In the case of `CN(C[C@H]1CC(=O)[C@@]2(C)CC[C@@H]3c4ccc(O)cc4CC[C@H]3[C@H]12)S(=O)(=O)c1cc(S(=O)(=O)c2ccccc2)cs1` [Example 696], the inhibition at 0.1 µM was determined as 35.7% and the inhibition at 1 µM came to 80.5%.
As for `COc1ccc2c(c1)CC[C@H]1[C@@H]3[C@H](CCCCCC(=O)NC4CCCCC4)CC(=O)[C@@]3(C)CC[C@H]21` [Example 348], the inhibition at 0.1 µM is 30.5% and the inhibition at 1 µM was found to be 82.4%.
As to `COc1cccc(NC(=O)NCCC[C@@H]2CC(=O)[C@@]3(C)CC[C@@H]4c5ccc(OC)cc5CC[C@H]4[C@H]23)c1` [Example 443], the inhibition at 0.1 µM was found to be 39.8% and the inhibition at 1 µM came out at 84.1%.
The matching figures for `COc1ccc2c(c1)CC[C@H]1[C@@H]3[C@H](CCC(=O)NCc4ccc(Cl)cc4)CC(=O)[C@@]3(C)CC[C@H]21` [Example 323]: 28.5% and 72.7%.
For `C[C@]12CC[C@@H]3c4ccc(O)cc4CC[C@H]3[C@@H]1[C@H](CCCO)CC2=O` [Example 823, 3-Hydroxy-15β-(3-Hydroxypropyl)-estra-1,3,5(10)-trien-17-one] the same measures were 76.1% and 97%.
For the molecule `COc1ccc2c(c1)CC[C@H]1[C@@H]3[C@H](CCCCC(=O)NCc4ccc(Cl)cc4)CC(=O)[C@@]3(C)CC[C@H]21` [Example 343], the inhibition at 0.1 µM worked out at 47.1% and the inhibition at 1 µM was 86%.
`COc1ccc2c(c1)CC[C@H]1[C@@H]3[C@H](CCCNC(=O)NCc4ccccc4)CC(=O)[C@@]3(C)CC[C@H]21` [Example 452]: the inhibition at 0.1 µM stood at 38.6% and the inhibition at 1 µM turned out to be 82.9%.
With `COc1ccc2c(c1)CC[C@H]1[C@@H]3[C@H](CCCCOC(=O)Nc4cccc([N+](=O)[O-])c4)CC(=O)[C@@]3(C)CC[C@H]21` [Example 754], the inhibition at 0.1 µM came to 29.3% and the inhibition at 1 µM is 65.1%.
`COc1ccc2c(c1)CC[C@H]1[C@@H]3[C@H](CCC(=O)NC4CCCCC4)CC(=O)[C@@]3(C)CC[C@H]21` [Example 310]: the inhibition at 0.1 µM is 67.9% and the inhibition at 1 µM came to 91.7%.
As for `COc1ccc(NC(=O)NCCCC[C@@H]2CC(=O)[C@@]3(C)CC[C@@H]4c5ccc(OC)cc5CC[C@H]4[C@H]23)cc1` [Example 471], the inhibition at 0.1 µM is 28.7% and the inhibition at 1 µM is 77%.
The matching figures for `COc1ccc2c(c1)CC[C@H]1[C@@H]3[C@H](CCCCCC(=O)NCc4ccncc4)CC(=O)[C@@]3(C)CC[C@H]21` [Example 357]: 31.1% and 85.2%.
For `COc1ccc2c(c1)CC[C@H]1[C@@H]3[C@H](CCC(=O)Nc4ncc(C)s4)CC(=O)[C@@]3(C)CC[C@H]21` [Example 329] the same measures were 78.9% and 96.2%.
For `CNC(=O)CCC[C@@H]1CC(=O)[C@@]2(C)CC[C@@H]3c4ccc(O)cc4CC[C@H]3[C@H]12` [Example 4A, 4-(3-Hydroxy-17-oxo-estra-1,3,5(10)-trien-15β-yl)-N-methyl-butyramide] the same measures were 47.1% and 66%.
On to `COc1ccc2c(c1)CC[C@H]1[C@@H]3[C@H](CCC(=O)NCc4ccc5c(c4)OCO5)CC(=O)[C@@]3(C)CC[C@H]21` [Example 315], for which the inhibition at 0.1 µM worked out at 29% and the inhibition at 1 µM was 74.4%.
Turning to `COc1ccc2c(c1)CC[C@H]1[C@@H]3[C@H](CCCC(=O)NCc4ccco4)CC(=O)[C@@]3(C)CC[C@H]21` [Example 7], the inhibition at 0.1 µM was found to be 28.7% and the inhibition at 1 µM is 63.4%.
The matching figures for `C[C@]12CC[C@@H]3c4ccc(O)cc4CC[C@H]3[C@@H]1[C@@H](CCCC(=O)N1CCOCC1)CC2=O` [Example 40, 3-Hydroxy-15α-(4-morpholin-4-yl-4-oxo-butyl)-estra-1,3,5(10)-trien-17-one]: 32.3% and 79.4%.
On to `COc1ccc2c(c1)CC[C@H]1[C@@H]3[C@H](CCCCC(=O)N(C)Cc4ccccc4)CC(=O)[C@@]3(C)CC[C@H]21` [Example 344], for which the inhibition at 0.1 µM is 39.8% and the inhibition at 1 µM was 88.9%.
For the molecule `COc1ccc2c(c1)CC[C@H]1[C@@H]3[C@H](CCCNC(=O)NC(C)C)CC(=O)[C@@]3(C)CC[C@H]21` [Example 449], the inhibition at 0.1 µM stood at 26% and the inhibition at 1 µM was determined as 82.7%.
Consider `CN(C[C@H]1CC(=O)[C@@]2(C)CC[C@@H]3c4ccc(O)cc4CC[C@H]3[C@H]12)S(=O)(=O)c1cccs1` [Example 682], for which the inhibition at 0.1 µM was determined as 49.2% and the inhibition at 1 µM was found to be 91.8%.
For the molecule `COc1ccc2c(c1)CC[C@H]1[C@@H]3[C@H](CCCOC(=O)Nc4ccc(Cl)c(Cl)c4)CC(=O)[C@@]3(C)CC[C@H]21` [Example 749], the inhibition at 0.1 µM amounted to 29.8% and the inhibition at 1 µM was determined as 57.3%.
For the molecule `Cc1cccc2c(CCNC(=O)CCC[C@@H]3CC(=O)[C@@]4(C)CC[C@@H]5c6ccc(O)cc6CC[C@H]5[C@H]34)c[nH]c12` [Example 36, 4-(3-Hydroxy-17-oxo-estra-1,3,5(10)-trien-15β-yl)-N-[2-(7-methyl-1H-indol-3-yl)-ethyl]-butyramide], the inhibition at 0.1 µM is 72.9% and the inhibition at 1 µM was 94.3%.
For `COc1ccc2c(c1)CC[C@H]1[C@@H]3[C@H](CCCCC(=O)NC4CCCCC4)CC(=O)[C@@]3(C)CC[C@H]21` [Example 331] the same measures were 37% and 88%.
For `CN(C[C@H]1CC(=O)[C@@]2(C)CC[C@@H]3c4ccc(O)cc4CC[C@H]3[C@H]12)S(=O)(=O)c1ccc(F)cc1` [Example 685] the same measures were 36% and 85.6%.
For `CCCCNC(=O)CCCCC[C@@H]1CC(=O)[C@@]2(C)CC[C@@H]3c4ccc(OC)cc4CC[C@H]3[C@H]12` [Example 365] the same measures were 33.7% and 86.4%.
With `COc1ccc2c(c1)CCC1C2CC[C@]2(C)C(=O)C[C@@H](CCCC(=O)NCCc3c[nH]c4c(C)cccc34)C12` (stereo partly drawn) [Example 31], the inhibition at 0.1 µM worked out at 52.8% and the inhibition at 1 µM worked out at 77.9%.
The matching figures for `COc1ccc2c(c1)CCC1C2CC[C@]2(C)C(=O)C[C@@H](CCCC(=O)NCCc3ccc(O)cc3)C12` (stereo partly drawn) [Example 22]: 27.3% and 57.8%.
On to `C[C@]12CC[C@@H]3c4ccc(O)cc4CC[C@H]3[C@@H]1[C@@H](CCCCNC(=O)NCC1CCCCC1)CC2=O` [Example 491], for which the inhibition at 0.1 µM came out at 56.9% and the inhibition at 1 µM was found to be 83%.
The matching figures for `COc1ccc2c(c1)CCC1C2CC[C@]2(C)C(=O)C[C@H](C(=O)Nc3ncc(C)s3)C12` (stereo partly drawn) [Example 105]: 33.8% and 81%.
The matching figures for `COc1ccc2c(c1)CC[C@H]1[C@@H]3[C@H](CCCCCC(=O)N4CCOCC4)CC(=O)[C@@]3(C)CC[C@H]21` [Example 354]: 28.7% and 80.3%.
Consider `COc1ccc2c(c1)CC[C@H]1[C@@H]3[C@H](CCCCCC(=O)N4CCSCC4)CC(=O)[C@@]3(C)CC[C@H]21` [Example 355], for which the inhibition at 0.1 µM came to 34.4% and the inhibition at 1 µM is 85.1%.
The matching figures for `COc1ccc2c(c1)CC[C@H]1[C@@H]3[C@H](CCCCCC(=O)N(C)Cc4ccccc4)CC(=O)[C@@]3(C)CC[C@H]21` [Example 364]: 48.7% and 90.8%.

The values above are taken from US8088758B2, “17β-hydroxysteroid dehydrogenase type I inhibitors” (Abbott Products GmbH, priority 2003, dated 2012).
